From patent publication US20260232693A1, “IMPROVING GLYMPHATIC-LYMPHATIC EFFLUX” (UNIVERSITY OF ROCHESTER, priority 2023, published 2026)
Entries after “also recorded” stand apart in the source; their conditions may differ.

Experiments:
Assay type in all cases: in vivo, C57BL/6 mice
[1] = tested on: superficial cervical lymph vessels; assay: DB53 brain clearance assay (intrastriatal injection, brain retention and femoral vein signal)
Procedure: Clearance assay was conducted using our published method (Pla, V. et al. A real-time in vivo clearance assay for quantification of glymphatic efflux. Cell Rep 40, 111320 (2022)). Briefly, anesthetized mice were mounted in a stereotactic apparatus and a small burr hole was made (AP+0.6 mm; ML-2.0 mm). A guide cannula (26G, […] SPC, 4.5 mm below pedestal) and dummy cannula ([…], 0.1 mm projection) was placed at DV 3.3 mm. After 48 hr, the dummy cannula was replaced by the inner cannula (33G, […]/SP, 0.1 mm projection), connected by a PE10 tubing to a 10 μL Hamilton syringe containing 4% (w/v) DB53 in sterile aCSF. The left femoral vein was exposed via skin resection and was placed under a fluorescent macroscope (microscope: MVX10, Olympus; light: PRIOR Lumen 1600-LED; camera: Flash 4.0 digital, Hamamatsu). The pump infusion (1 μL, […]) was triggered simultaneously with the imaging over the vein, once every 15 min for 2 h for the intraparenchymal delivery. […] At the end of the experiment, animals were decapitated, and their brains were harvested for postmortem analysis. For quantitative image analysis for femoral vein and ex vivo in the brain is the same as described in Pla, V. et al. A real-time in vivo clearance assay for quantification of glymphatic efflux. Cell Rep 40, 111320 (2022).

[2] = tested on: cervical lymphatic vessels (cLVs); assay: 2P-OPTIC two-photon imaging with particle tracking of cervical lymphatic vessel contraction and flow, before and after topical PGF2α; settings: for decrease in retrograde fraction / ejection rate / increase in ejection fraction / increase in ejection volume / median vessel diameter: after vs before PGF2α; for retrograde fraction after PGF2α / ejection fraction after PGF2α: mean±SEM; for increase in intrinsic pulsation rate: after vs before topical PGF2α 5 μM
[3] = Measurement of vital signs (heart and respiratory rate) before and after PGF2α; settings: topical PGF2α; young and old mice
Procedure: Heart and respiratory rate were measured using a small animal physiological monitoring 494 device (Harvard Apparatus) which acquired measurements at 1 kHz and 250 Hz, respectively. The signals were digitized and recorded with a DigiData 1550A digitizer and AxoScope software 496 (Axon Instruments).

[4] = tested on: cervical lymph nodes (cLNs); assay: Ex vivo cervical lymph node imaging of OVA-647 accumulation; settings: 90 min
Procedure: One microliter PBS with or without 5 μM PGF2a was applied directly onto the cervical lymph vessel simultaneously with the injection of OVA-647 (0.5% w/v, 45 kDa, Invitrogen, 10 μL, 2 μL/min) into cisterna magna for 90 min. Then the superficial and deep cervical lymph nodes were dissected and put on the microscope slices (Fisherbrand). The lymph nodes were placed under the macroscope (MVX10 Research Macro Zoom Microscope, 633 Olympus). The images were acquired in the far-red emission channel (647 nm).

[5] = tested on: cervical lymphatic vessels (cLVs); assay: Epi-fluorescent macroscopic imaging of OVA-647 CSF tracer drainage in cervical lymphatic vessels; settings: 60 min imaging, 5 μM PGF2α topical
Procedure: Ovalbumin-conjugated to Alexa Fluor 647 (OVA-647, 0.5% w/v, 45 kDa, Invitrogen, 10 μL, 2 μL/min) was injected into the cisterna magna through a 30G needle connected to PE-10 tubing using a syringe pump (Harvard Apparatus). Cervical lymphatic vessels were surgically exposed as before and imaged using a fluorescent macroscope (MVX10, Olympus) with a PRIOR Lumen 1600-LED light source and ORCA Flash 4.0 digital camera (Hamamatsu) using Metamorph software. The images at 20× magnification from the far-red emission channel (647 nm) were collected at 1 min intervals for 60 min following the start of the injection. Exposure time was kept constant across all the experimental groups. One microliter PBS with or without 5 μM PGF2a was applied directly onto the cervical lymph vessel simultaneously with the injection of OVA-647 into cisterna magna.

## CCCCC[C@H](O)/C=C/[C@@H]1[C@@H](C/C=C\CCCC(=O)O)[C@@H](O)C[C@H]1O [PGF2α, prostaglandin F2α]
[1]; 75 min, control 4.6±0.8
  DB53 signal in the femoral vein: 8.3±1.3
[1]; 90 min, control 5.5±0.6
  DB53 signal in the femoral vein: 10.3±1.5
[1]; 105 min, control 6.6±0.7
  DB53 signal in the femoral vein: 10.8±1.4
[1]; 120 min, control 6.8±0.7
  DB53 signal in the femoral vein: 11.45±8.3
[1]; 2 h imaging
  DB53 signal in the femoral vein (brain clearance to plasma), overall vs control: dramatically increased
[1]; after intrastriatal DB53, control 10.1±1.3, mean±SEM
  DB53 retained in the brain (% area of DB53 fluorescence): 6.3±0.9 % area
[2]; 2-month-old mice
  decrease in retrograde fraction: 64.2%
  ejection rate: no change
  increase in ejection fraction: 7.0%
  increase in ejection volume: 148.6%
  median vessel diameter: decreased
[2]; 2-month-old mice, before: 8.1±1.0
  retrograde fraction after PGF2α: 2.9±0.6%
[2]; 2-month-old mice, before: 90.8±0.8
  ejection fraction after PGF2α: 97.1±0.6%
[2]; 2-month-old mice, intracisternal fluorescent microspheres
  increase in CSF drainage (number of microsphere particles detected in cLVs): 35.4%
[2]; 22-month-old mice
  decrease in retrograde fraction: 83.6%
  ejection rate: no change
  increase in ejection fraction: 31.7%
  increase in ejection volume: 181.4%
  median vessel diameter: decreased
[2]; 22-month-old mice, before: 27.5±2.1
  retrograde fraction after PGF2α: 4.5±0.4%
[2]; 22-month-old mice, before: 72.5±2.1
  ejection fraction after PGF2α: 95.5±0.5%
[2]; aged mice, intracisternal fluorescent microspheres
  solute arriving to the cLN (particle count) compared to untreated aged controls: ~4 times
[2]; old (22-month-old) mice
  increase in intrinsic pulsation rate: 152.0%
[2]; old mice, after vs before topical PGF2α
  increase in flow speeds: 3.5 fold
[2]; vs before PGF2α
  contraction amplitude (Δd): increased
[2]; young (2-month-old) mice
  increase in intrinsic pulsation rate: 50.7%
[2]; young mice, after vs before topical PGF2α
  increase in downstream speed: 103.1%
[3]
  respiratory rate: did not induce changes; also recorded: unaffected
[4]; 2-month-old mice
  accumulation of OVA647 in cLNs, ex vivo: significantly larger accumulation
[4]; 22-month-old mice
  accumulation of OVA647 in cLNs, ex vivo: significantly larger accumulation
[5]; old (22-month-old) mice
  CSF drainage of OVA647 tracer (fluorescence intensity in cLVs): promoted robust CSF drainage
[5]; young mice
  CSF drainage of OVA647 tracer (fluorescence intensity in cLVs): promoted robust CSF drainage
